Data from US20200207782A1, “CHEMICALLY ACTIVATED WATER-SOLUBLE PRODRUG” (SUMITOMO DAINIPPON PHARMA CO., LTD, priority 2017, published 2020).
In brackets after ≈: the same amount, converted by molar mass.

Experiments:
[1] = Evaluation of conversion rate to active form in human plasma; format: in vitro ADME; details: human, 10 umol/L
Protocol: (§1) The ratio of decrease of a test compound and the conversion ratio to a corresponding active form (2-acetylthieno[3,2-f][1]benzofuran-4,8-dione) in human plasma and CD1 mouse plasma were measured for Example 1.
(§2) The test compounds were incubated at 37° C. at a concentration of 10 umol/L in human plasma (cat. no. 12250210, Cosmo Bio) and CD1 mouse plasma (cat. no. AP3054, KAC) and retrieved for a given time (0, 5, 10, 30, 60, and 120 minutes) and deproteinized, then analyzed by LC-MS. Acetonitrile comprising each of 10% quantity of 1 mol/L hydrochloric acid, 1% quantity of 46% citric acid, and phenytoin as an internal standard was used for deproteinization.
(§3) LC-MS measurement conditions were the following.
(§4) The yield of the Examples compounds and active form 2-acetylthieno[3,2-f][1]benzofuran-4,8-dione is calculated with each of the peak area of the Example compounds at 0 minutes and the peak area upon dissolution of 2-acetylthieno[3,2-f][1]benzofuran-4,8-dione at 100 umol/L as 100%. The yield is denoted in terms of %.
(§5) In the same manner as Example 1, the conversion ratio to an active form was measured for each of the various test compounds in human plasma and CD1 mouse plasma, with incubation time as 120 minutes. It was confirmed that the series of compounds of the invention was converted to an active form with a small interspecies difference in human plasma and CD1 mouse plasma.
(§6) The yield of the active forms is calculated with the each peak area upon dissolution of the generated active form at 100 umol/L as 100%. The yield is denoted in terms of %.

[2] = Evaluation of conversion rate to active form in CD1 mouse plasma; format: in vitro ADME; details: CD1, mouse, 10 umol/L
Protocol: as §1, §2, §3, §4, §5, §6

physchem = details: 50 mmol/L glycine buffer, pH 2, aqueous buffer, thermodynamic from solid
Protocol: (§7) The solubility of the water-soluble prodrugs described in the Examples and the Reference Examples was measured. […] The filtrate was measured by HPLC.

[3] = pH 2
Protocol: as §7

Row | Measurement value % of active form (conversion ratio to active form) ([1]; 0 min) | Measurement value % of active form (conversion ratio to active form) ([1]; 5 min) | Measurement value % of active form (conversion ratio to active form) ([1]; 10 min) | Measurement value % of active form (conversion ratio to active form) ([1]; 30 min) | Measurement value % of active form (conversion ratio to active form) ([1]; 60 min) | Measurement value % of active form (conversion ratio to active form) ([1]; 120 min) | Measurement value % of active form (conversion ratio to active form) ([2]; 0 min) | Measurement value % of active form (conversion ratio to active form) ([2]; 5 min) | Measurement value % of active form (conversion ratio to active form) ([2]; 10 min) | Measurement value % of active form (conversion ratio to active form) ([2]; 30 min) | Measurement value % of active form (conversion ratio to active form) ([2]; 60 min) | Measurement value % of active form (conversion ratio to active form) ([2]; 120 min) | solubility at 24 h (physchem) | SMILES | Solubility in buffer [3]
1 | 0.0% | 36.4% | 51.6% | 83.4% | 89.7% | 91.3% | 0.0% | 21.1% | 36.7% | 70.8% | 73.8% | 71.4% | 4 µg/mL (≈ 16.2 µM) | CC(=O)c1cc2c(o1)C(=O)c1sccc1C2=O [2-acetylthieno[3,2-f][1]benzofuran-4,8-dione, reference compound] | –
2 | – | – | – | – | – | – | – | – | – | – | – | – | – | C[C@H]1COC2=C1C(=O)C(=O)c1c2ccc2c1CCCC2(C)C [(1R)-1,6,6-trimethyl-1,2,6,7,8,9-hexahydrophenanthro[1,2-b]furan-10,11-dione] | Below
